Molecular target: T1, human PPARα (Homo sapiens, UniProt Q07869)
T1 construct: The coding region of a human PPARα cDNA was inserted downstream of the CMV promoter; expressed in transfected cells; host or cells: Cos-7 cells, transient transfection (pcDNA3.1(−)-PPARα, pRSV-RXRα, 3xPPRE-TK-luc reporter, pRL-TK)
T1 sequence (Q07869 1-468): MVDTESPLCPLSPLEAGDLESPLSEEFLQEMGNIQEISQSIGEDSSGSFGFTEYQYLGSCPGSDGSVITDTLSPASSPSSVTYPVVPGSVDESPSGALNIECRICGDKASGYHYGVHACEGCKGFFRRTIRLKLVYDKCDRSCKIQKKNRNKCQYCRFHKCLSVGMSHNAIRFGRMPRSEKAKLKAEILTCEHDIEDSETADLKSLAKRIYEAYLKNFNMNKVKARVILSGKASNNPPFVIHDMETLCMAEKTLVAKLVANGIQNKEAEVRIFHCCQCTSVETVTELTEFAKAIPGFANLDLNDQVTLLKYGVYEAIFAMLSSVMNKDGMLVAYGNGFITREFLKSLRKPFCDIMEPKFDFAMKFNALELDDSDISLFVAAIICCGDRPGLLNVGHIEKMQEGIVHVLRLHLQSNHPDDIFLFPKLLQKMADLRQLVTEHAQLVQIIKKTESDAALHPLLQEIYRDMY
T1 sequence (P19793 1-462 partner): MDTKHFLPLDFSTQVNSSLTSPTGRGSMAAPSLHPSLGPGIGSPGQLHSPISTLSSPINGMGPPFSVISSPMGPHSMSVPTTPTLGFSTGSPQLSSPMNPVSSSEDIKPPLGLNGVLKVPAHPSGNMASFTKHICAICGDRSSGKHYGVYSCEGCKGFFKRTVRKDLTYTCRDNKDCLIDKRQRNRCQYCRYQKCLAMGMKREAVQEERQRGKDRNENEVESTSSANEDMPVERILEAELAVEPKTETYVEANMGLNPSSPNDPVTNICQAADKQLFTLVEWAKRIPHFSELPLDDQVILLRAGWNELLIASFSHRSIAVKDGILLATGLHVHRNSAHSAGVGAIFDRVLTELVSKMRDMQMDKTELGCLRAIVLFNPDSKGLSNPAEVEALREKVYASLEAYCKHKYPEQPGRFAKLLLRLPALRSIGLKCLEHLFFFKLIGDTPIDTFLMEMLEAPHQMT
Experiment: PPARα reporter gene assay (firefly luciferase, transiently transfected Cos-7 cells)
Assay type: cell-based

Result at (lowest administration level at which super or MS activity was achieved): 25 μm
Pass at (lowest tested administration level at which the test material passed) (pass = activation greater than oleic acid at 100 μM, commonly >1.57 times vehicle control, 24 h treatment): 10 μm
Structure (SMILES): CC\C=C/C=C/C=C/C=C\CCCCCCCC(=O)O [cis parinaric acid, cis-parinaric acid]
Result (superior activity class achieved) (class reached): super (superior activity [super] (50% higher—at least 2.25 times PPARα activation))
